According to patent publication US20250382305A1 (PTC THERAPEUTICS, INC., priority 2022, published 2025):

Columns and labels:
[1] = tested on: Total ATXN3 (tATXN3) protein; assay: Endogenous Total ATXN3 (tATXN3) Protein Assay (MSD immunoassay of cell lysates); format: cell-based; conditions: average IC50, total ATXN3 protein in cell lysate after 48 h with compound (Table 1)
In short: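 By electrochemiluminescent MSD sandwich immunoassay (mouse monoclonal capture, rabbit monoclonal and SULFO-TAG anti-rabbit detection), endogenous ATXN3 was quantified in lysates of cells treated 48 h at 37° C at 10,000 cells/well. Treatment used a 7-point 3.16-fold duplicate dilution series, with average IC50 grouped into star categories.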

ATXN3 pre-mRNA = assay: RT-qPCR Assay to Quantify Exon 4 Skipping in ATXN3 pre-mRNA in Cells; format: cell-based; conditions: percent exon 4 skipping in ATXN3 pre-mRNA, RT-qPCR of cell lysates; average IC50
In short: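 IC50 derives from a dose-response fit of percent exon 4 skipping, quantified by RT-qPCR on crude lysates. Compounds tested as 7-point 3.16-fold dilutions in duplicate; cells (10,000/well) were exposed for 24 h at 37 °C before lysis.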

Compound	IC50 [1] [nM]	IC50 (ATXN3 pre-mRNA) [nM]
6-((3R,4S)-3-aminotetrahydro-2H-pyran-4-yl)-2-chloro-N-(furan-2-ylmethyl)-7-iodothieno[3,2-d]pyrimidin-4-amine and 6-((3S,4R)-3-aminotetrahydro-2H-pyran-4-yl)-2-chloro-N-(furan-2-ylmethyl)-7-iodothieno[3,2-d]pyrimidin-4-amine [Compound 245]	≤ 30	≤ 30
N[C@@H]1COCC[C@H]1c1sc2c(NCc3ccco3)cc(Cl)nc2c1Cl [Compound 410, 2-((3S,4R)-3-aminotetrahydro-2H-pyran-4-yl)-3,5-dichloro-N-(furan-2-ylmethyl)thieno[3,2-b]pyridin-7-amine]	30 to 300	30 to 300
N[C@@H]1CCCO[C@H]1c1sc2c(NCc3ccco3)cc(Cl)nc2c1Cl [Compound 119, 2-((2R,3R)-3-aminotetrahydro-2H-pyran-2-yl)-3,5-dichloro-N-(furan-2-ylmethyl)thieno[3,2-b]pyridin-7-amine]	> 1000	> 1000
2-((1S,2S)-2-aminocyclohexyl)-5-chloro-3-(fluoromethyl)-N-(thiophen-2-ylmethyl)thieno[3,2-b]pyridin-7-amine and 2-((1R,2R)-2-aminocyclohexyl)-5-chloro-3-(fluoromethyl)-N-(thiophen-2-ylmethyl)thieno[3,2-b]pyridin-7-amine [Compound 400]	300 to 1000	300 to 1000
Cc1c([C@H]2CC=CC[C@@H]2N)sc2c(NCc3ccccc3F)cc(Cl)nc12 [Compound 341, 2-((1S,6S)-6-aminocyclohex-3-en-1-yl)-5-chloro-N-(2-fluorobenzyl)-3-methylthieno[3,2-b]pyridin-7-amine]	30 to 300	30 to 300
CC#CCNc1cc(Cl)nc2c(C)c([C@H]3CC=CC[C@@H]3N)sc12 [Compound 306, 2-((1S,6S)-6-aminocyclohex-3-en-1-yl)-N-(but-2-yn-1-yl)-5-chloro-3-methylthieno[3,2-b]pyridin-7-amine]	30 to 300	30 to 300
Cc1c([C@@H]2CC=CC[C@H]2N)sc2c(NCc3ccsc3)cc(Cl)nc12 [Compound 419, 2-((1R,6R)-6-aminocyclohex-3-en-1-yl)-5-chloro-3-methyl-N-(thiophen-3-ylmethyl)thieno[3,2-b]pyridin-7-amine]	30 to 300	30 to 300
N[C@@H]1CC=CC[C@H]1c1sc2c(NCc3ccco3)cc(Cl)nc2c1I [Compound 327, 2-((1R,6R)-6-aminocyclohex-3-en-1-yl)-5-chloro-N-(furan-2-ylmethyl)-3-iodothieno[3,2-b]pyridin-7-amine]	30 to 300	30 to 300
2-((1R,2R)-2-aminocyclohexyl)-5-chloro-3-methyl-N-(thiophen-2-ylmethyl)thieno[3,2-b]pyridin-7-amine or 2-((1S,2S)-2-aminocyclohexyl)-5-chloro-3-methyl-N-(thiophen-2-ylmethyl)thieno[3,2-b]pyridine-7-amine [Compound 35]	300 to 1000	300 to 1000
Cc1c([C@@H]2CCC[C@H](F)[C@H]2N)sc2c(NCc3cccs3)cc(Cl)nc12.Cc1c([C@H]2CCC[C@@H](F)[C@@H]2N)sc2c(NCc3cccs3)cc(Cl)nc12 (mixture of isomers) [Compound 342, 2-((1R,2S,3S)-2-amino-3-fluorocyclohexyl)-5-chloro-3-methyl-N-(thiophen-2-ylmethyl)thieno[3,2-b]pyridin-7-amine and 2-((1S,2R,3R)-2-amino-3-fluorocyclohexyl)-5-chloro-3-methyl-N-(thiophen-2-ylmethyl)thieno[3,2-b]pyridin-7-amine]	30 to 300	30 to 300
N[C@H]1CC=CC[C@@H]1c1sc2c(NCc3ccco3)nc(Cl)nc2c1Cl [Compound 170, 6-((1S,6S)-6-aminocyclohex-3-en-1-yl)-2,7-dichloro-N-(furan-2-ylmethyl)thieno[3,2-d]pyrimidin-4-amine]	≤ 30	< 30
N[C@@H]1CCCCCC[C@H]1c1cc2nc(Cl)cc(NCc3cccs3)c2s1 [Compound 105, 2-((1R,2R)-2-aminocyclooctyl)-5-chloro-N-(thiophen-2-ylmethyl)thieno[3,2-b]pyridin-7-amine]	> 1000	> 1000
NC1CCCOC1c1sc2c(NCc3ccccc3F)cc(Cl)nc2c1Cl (mixture of isomers) [Compound 24, 2-((2R,3R)-3-aminotetrahydro-2H-pyran-2-yl)-3,5-dichloro-N-(2-fluorobenzyl)thieno[3,2-b]pyridin-7-amine and 2-((2S,3S)-3-aminotetrahydro-2H-pyran-2-yl)-3,5-dichloro-N-(2-fluorobenzyl)thieno[3,2-b]pyridin-7-amine]	30 to 300	30 to 300
N[C@H]1CC=CC[C@@H]1c1sc2c(NCc3ccccc3)cc(Cl)nc2c1Br [Compound 194, 2-((1S,6S)-6-aminocyclohex-3-en-1-yl)-N-benzyl-3-bromo-5-chlorothieno[3,2-b]pyridin-7-amine]	≤ 30	≤ 30
[2H]C1=C([2H])C([2H])([2H])[C@H](c2sc3c(NCc4cccs4)cc(Cl)nc3c2C)[C@@H](N)C1([2H])[2H] [Compound 205, 2-((1S,6S)-6-aminocyclohex-3-en-1-yl-2,2,3,4,5,5-d6)-5-chloro-3-methyl-N-(thiophen-2-ylmethyl)thieno[3,2-b]pyridin-7-amine]	≤ 30	≤ 30
N[C@@H]1CCC[C@@H]1c1sc2c(NCc3cccs3)cc(Cl)nc2c1Cl [Compound 3, 2-((1S,2R)-2-aminocyclopentyl)-3,5-dichloro-N-(thiophen-2-ylmethyl)thieno[3,2-b]pyridin-7-amine]	> 1000	> 1000
CCc1c([C@@H]2CCC[C@H]2N)sc2c(NCc3cccs3)cc(Cl)nc12 [Compound 12, 2-((1R,2R)-2-aminocyclopentyl)-5-chloro-3-ethyl-N-(thiophen-2-ylmethyl)thieno[3,2-b]pyridin-7-amine]	> 1000	> 1000
C=Cc1c([C@H]2CC=CC[C@@H]2N)sc2c(NCc3cccs3)cc(Cl)nc12 [Compound 267, 2-((1S,6S)-6-aminocyclohex-3-en-1-yl)-5-chloro-N-(thiophen-2-ylmethyl)-3-vinylthieno[3,2-b]pyridin-7-amine]	30 to 300	30 to 300
2-((1R,6R)-6-aminocyclohex-3-en-1-yl)-3-bromo-5-chloro-N-((E)-pent-2-en-1-yl)thieno[3,2-b]pyridin-7-amine and 2-((1S,6S)-6-aminocyclohex-3-en-1-yl)-3-bromo-5-chloro-N-((E)-pent-2-en-1-yl)thieno[3,2-b]pyridin-7-amine [Compound 455]	300 to 1000	300 to 1000
[2H]C1=C([2H])C([2H])([2H])[C@H](c2sc3c(NC([2H])([2H])c4ccccc4)cc(Cl)nc3c2C)[C@@H](N)C1([2H])[2H] [Compound 322, 2-((1S,6S)-6-aminocyclohex-3-en-1-yl-2,2,3,4,5,5-d6)-5-chloro-3-methyl-N-(phenylmethyl-d2)thieno[3,2-b]pyridin-7-amine]	30 to 300	30 to 300
N[C@H]1CC=CC[C@@H]1c1c(Cl)c2nc(Cl)cc(NCc3ccccc3)c2n1C(F)F [Compound 420, 2-((1S,6S)-6-aminocyclohex-3-en-1-yl)-N-benzyl-3,5-dichloro-1-(difluoromethyl)-1H-pyrrolo[3,2-b]pyridin-7-amine]	30 to 300	30 to 300
N[C@H]1CC=CC[C@@H]1c1sc2c(NCc3ccco3)cc(Cl)nc2c1I [Compound 188, 2-((1S,6S)-6-aminocyclohex-3-en-1-yl)-5-chloro-N-(furan-2-ylmethyl)-3-iodothieno[3,2-b]pyridin-7-amine]	≤ 30	≤ 30
N[C@H]1CCCC[C@]1(F)c1sc2c(NCc3ccccc3)cc(Cl)nc2c1Br [Compound 37, 2-((1R,2S)-2-amino-1-fluorocyclohexyl)-N-benzyl-3-bromo-5-chlorothieno[3,2-b]pyridin-7-amine]	300 to 1000	30 to 300
N[C@@H]1CCCCC1c1sc2c(NCc3cccs3)cc(Cl)nc2c1C(F)F.N[C@H]1CCCCC1c1sc2c(NCc3cccs3)cc(Cl)nc2c1C(F)F (mixture of isomers) [Compound 279, 2-((2R)-2-aminocyclohexyl)-5-chloro-3-(difluoromethyl)-N-(thiophen-2-ylmethyl)thieno[3,2-b]pyridin-7-amine and 2-((2S)-2-aminocyclohexyl)-5-chloro-3-(difluoromethyl)-N-(thiophen-2-ylmethyl)thieno[3,2-b]pyridin-7-amine]	30 to 300	30 to 300
Cc1c([C@H]2CCC[C@@H]2N)sc2c(NCc3ccccc3)cc(Cl)nc12 [Compound 107, 2-((1S,2S)-2-aminocyclopentyl)-N-benzyl-5-chloro-3-methylthieno[3,2-b]pyridin-7-amine]	300 to 1000	300 to 1000
N[C@H]1CCC[C@@H]1c1sc2c(NCc3ccco3)cc(Cl)nc2c1Br [Compound 165, 2-((1S,2S)-2-aminocyclopentyl)-3-bromo-5-chloro-N-(furan-2-ylmethyl)thieno[3,2-b]pyridin-7-amine]	≤ 30	≤ 30
2-((1R,2R)-2-amino-4,4-dimethylcyclohexyl)-3-bromo-5-chloro-N-(thiophen-2-ylmethyl)thieno[3,2-b]pyridin-7-amine and 2-((1S,2S)-2-amino-4,4-dimethylcyclohexyl)-3-bromo-5-chloro-N-(thiophen-2-ylmethyl)thieno[3,2-b]pyridin-7-amine [Compound 152]	30 to 300	30 to 300
